Counter-ions that a name gives are not always drawn. Each block holds one compound with its values, some of them ahead of it.
Tests used:
[1] = system: cytochrome P450
Procedure: The metabolism of skatole was assayed in a medium containing 50 mM Tris-HCL buffer, pH 7.4, 10 mM potassium phosphate, 0.1 mM EDTA, 20% glycerol, 0.01 mM skatole and 1 mg/mL microsomel protein in a total volume of 2 mL. The reactions were started by addition of NADH and NADPH to 1 mM final concentration of each after 3 min of preincubation at 37° C. After 30 min at 37° C., the reactions were terminated by addition of 2 mL of ice-cold 0.2 M ammonium acetate buffer, pH 5.0.
Those incubations with no inhibitor added were regarded as controls. The effect of different P450 inhibitors on skatole metabolism was evaluated under the same conditions by including different concentrations of P450 inhibitors into the medium before preincubation.
Each assay was performed in duplicate. […] After adding ammonium acetate buffer, 5 μL of 0.01 mg/mL indole-3-acetonitrile was added to the reaction mixture as an internal standard. The mixture was then passed through a solid phase extraction tC18 cartridge (Waters Co., Milford, Mass.) previously conditioned with 2 mL of methanol and then 2 mL of water. The column was washed with 1 mL of water and skatole metabolites were eluted with 2×0.5 mL of acetonitrile. The acetonitrile was removed under a gentle stream of nitrogen at 40° C. and the metabolites were resuspended in 200 μl of acetonitrile for HPLC analysis. The HPLC equipment included a Spectra-Physics (San Jose, Calif., USA) SP8800 pump, SP8800 autosampler and SP4290 integrator, and a Phenomenex (Torrance, Calif., USA) Prodigy ODS-2 C18, 250×4.6 mm, 5 μm column. […] Injection volume was 100 μl.
For the purpose of the analysis, peak areas of the metabolites in control incubations were considered as 100%. Peak areas of the metabolites in the incubations with inhibitors were transformed to values of those for controls. The statistical model included the effect of the concentration of inhibitor and the effect of animal.

[2] = system: thermostable phenol sulfotransferase; experiment: Sulfation of 5-OH-3MI by liver cytosol with phenolsulfotransferase inhibitors (Trial III); type: biochemical; conditions: pig liver cytosol, 0.01 mM 5-OH-3MI, 1 mM PAPS, 10 min
Procedure: Trial III. The assay of 5-OH-3MI sulfation in Trial III utilized 1 mg cytosolic protein incubated with 0.01 mM 5-OH-3MI and 1 mM PAPS in 0.05M Tris/HCl pH 7.4 buffer containing 5 mM MgC12 in a total volume of 250 μl. The incubations were carried out in a shaking water bath at 37° C. for 10 min and the reaction was stopped with 250 μL ice-cold acetonitrile. After the addition of acetonitrile, the mixture was vortexed and centrifuged at 4,000 g for 15 min. A 400 μL aliquot of the clear supernatant was diluted with 400 μL water and 100 μL of the mixture was analyzed immediately by high-performance liquid chromatography (HPLC) as described below. Conjugates were identified based on the following criteria: (1) no peaks corresponding to conjugates appeared when cytosol and/or PAPS were excluded from the incubations; (2) no peaks corresponding to conjugates appeared when boiled cytosol was used, and (3) the peaks corresponding to the conjugates disappeared after addition of 10 μl of type H-2 sulfatase to the incubation mixture and further incubation for 3 h at 37° C. in a shaking water bath. Sulfation activity was measured as the formation of sulfoconjugate per minute per mg of cytosolic protein.
The effects of the phenolsulfotransferase inhibitors PCP and DCNP on the sulfation of 5-OH-3MI were determined by including different final concentrations of PCP or DCNP (0.001, 0.01, 0.1, 1, 10, 100 μM) in the assays. PCP was dissolved in methanol (final assay concentration 1%, v/v) and control incubations for PCP inihibition studies contained 1% methanol. DCNP was dissolved in incubation buffer.
Trial III. 5-OH-skatole and its sulfate conjugate were separated using a previously reported binary gradient system method (Hernandez et al., 1991) with a reverse-phase Prodigy ODS, 5 μm, 250×4.6 mm column (Phenomenex, Torrance, Calif., USA). The mobile phase consisted of 0.05M ammonium acetate buffer pH 5.0, at a flow rate of 1.2 ml/min. A 25-min linear gradient from 10 to 60% acetonitrile was used, with initiation of the gradient 2 min after sample injection. 5-OH-skatole and its conjugate were determined by their fluorescence (excitation wavelength of 285 nm, emission wavelength of 350 nm). Typical retention times for 5-OH-skatole and its conjugate were 18.5 and 13.4 min, respectively.

[3] = biological target: CYP2E1 (Sus scrofa, UniProt P79383); conditions: uncastrated Yorkshire male pigs; 0.5 g/kg BW daily by gavage, day 14 to day 50; after day 27; P<0.05
Chain of CYP2E1 (P79383 whole entry): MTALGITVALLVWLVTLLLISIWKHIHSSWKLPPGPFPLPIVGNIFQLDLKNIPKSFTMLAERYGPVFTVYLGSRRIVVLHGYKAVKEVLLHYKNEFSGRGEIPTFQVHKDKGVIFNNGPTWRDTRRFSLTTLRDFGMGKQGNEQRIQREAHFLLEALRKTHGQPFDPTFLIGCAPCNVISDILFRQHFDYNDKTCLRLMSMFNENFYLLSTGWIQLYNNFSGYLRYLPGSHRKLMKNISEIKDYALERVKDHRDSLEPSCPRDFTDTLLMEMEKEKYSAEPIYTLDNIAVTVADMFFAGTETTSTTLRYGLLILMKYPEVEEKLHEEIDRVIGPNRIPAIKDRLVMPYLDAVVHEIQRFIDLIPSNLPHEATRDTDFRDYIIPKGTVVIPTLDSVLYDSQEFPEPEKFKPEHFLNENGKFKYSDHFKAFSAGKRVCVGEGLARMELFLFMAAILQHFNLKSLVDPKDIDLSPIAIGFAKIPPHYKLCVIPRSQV
Procedure: Eight uncastrated Yorkshire male pigs were utilized in the study. Four males were assigned to the control group while the remaining four were treated with 0.5 g/kg BW of ethanol daily by gavage. Ethanol is a well-established inducer of CYP2E1. Treatment began at day 14 and continued until day 50. Blood samples were collected weekly and plasma skatole levels were measured by HPLC.

[4] = system: glucuronyl transferase; experiment: Conjugation of microsomal skatole metabolites with glucuronic acid (Trial II-c); type: in vitro ADME; conditions: pig liver microsomes, 1 mM UDP-GA, 30 min
Procedure: (§1) Trial II. For evaluation of skatole metabolite production (Trial II-a, n=22), 1 mg/ml of liver microsomes were incubated in Buffer 1,1 mM NADPH, 1 mM NADH, and 0.01 mM skatole in a total volume of 2 ml for 30 min at 37° C. as previously described (Babol et al., 1997). To determine which microsomal skatole metabolites are conjugated with sulfate (Trial II-b, n=3), the reaction mixture was first incubated for 30 min as in Trial II-a. PAPS was then added to 1 mM final concentration and the incubation continued for 30, 60 and 90 min. Control incubations were performed for the same period of time with no PAPS added. Assays to evaluate the conjugation of skatole metabolites with glucuronic acid (Trial II-c, n=3) were conducted in a similar way by adding 1 mM of UDP-GA after 30 min of initial incubation and continuing the incubation for a further 7.5, 15 and 30 min. […]
(§2) Trial II. […] The metabolites were separated with RP C18 column and detected by measuring UV absorbance at 250 nm and fluorescence with excitation and emission wavelengths set at 285 and 340 nm.
(§3) Trial II. The effect of time of incubation of skatole metabolites with PAPS (Trial I1-b) and UDPGA (Trial I1-c) on the concentrations of the metabolites was analyzed using untransformed values with the GLM procedure. […] The differences in the metabolic activities among the groups were analyzed with the GLM procedure.

[5] = system: sulfotransferase; experiment: Conjugation of microsomal skatole metabolites with sulfate (Trial II-b); type: in vitro ADME; conditions: pig liver microsomes, 1 mM PAPS, 90 min
Procedure: as §1, §2, §3

Formation of all the other skatole metabolites, except for F-1 [1]: inhibited | Skatole disappearance, effect in words [1]: reduced
SMILES: C=CCSCC=C [DAS, diallyl sulfide]

SMILES: O=[N+]([O-])c1cc(Cl)c(O)c(Cl)c1 [DCNP, 2,6-dichloro-4-nitrophenol]
5-sulfatoxyskatole production, % of the control ([2]; inhibitor 10 μM): 13.8% | 5-sulfatoxyskatole production, % of the control ([2]; inhibitor 100 μM): 7.1%

SMILES: Oc1c(Cl)c(Cl)c(Cl)c(Cl)c1Cl [PCP, Pentachlorophenol]
5-sulfatoxyskatole production, % of the control ([2]; inhibitor 10 μM): 35.3% | 5-sulfatoxyskatole production, % of the control ([2]; inhibitor 100 μM): 8%

Amount of skatole remaining in the reaction mixture after incubation versus control [1]: not affected | Formation of F-2, effect in words [1]: reduced | Formation of F-3, effect in words [1]: reduced | Formation of UV-3, effect in words [1]: reduced
SMILES: CCCC(C(=O)OCCN(CC)CC)(c1ccccc1)c1ccccc1 [SKF 525A, SKF 525A hydrochloride (Proadifen)]

Plasma skatole levels versus control group [3]: significantly lower
SMILES: CCO [ethanol]

Amount of skatole remaining in the reaction mixture after incubation versus control [1]: higher | Formation of UV-3, effect in words [1]: reduced
SMILES: CC(C)(C(=O)c1cccnc1)c1cccnc1 [metyrapone]

SMILES: Cc1c[nH]c2cc(O)ccc12 [pro-MII, 6-Hydroxy-3-methylindole]
Concentration in incubation with UDPGA, % of control incubations [4]: 20% | Concentration in incubation with PAPS, % of control [5]: 40%

Concentration in incubation with UDPGA, % of control incubations [4]: 126.1%
SMILES: Cc1c[nH]c2ccccc12 [skatole, 3-methylindole]

Reference: US20050216965A1, “Method of detecting and reducing boar taint” (UNIVERSITY OF GUELPH, priority 1998, published 2005)
